Assay results as given in ChEMBL document CHEMBL5576038, “Design of a novel long-acting dual GLP-1/GIP receptor agonist” (Bioorg Med Chem, 2024).
Active and inactive are the calls of the source. No cut-off for these calls is given here. Where a SMILES comes first, the peptide text is derived from it. [ ]: non-standard residue; d: D form. The star is where a group is joined. X1 = N[C@@H](CCCCNC(=O)CC[C@H](NC(=O)CCCCCCCCCCCCCCCCCCC(=O)O)C(=O)O)C(=O)NCCCC[C@H](N)C(=O)N[C@@H](CCCCNC(=O)C*)C(=O)O; X4 = O=C(O)CCCCCCCCCCCCCCCCCCC(=O)NCCOCCOCC(=O)N[C@@H](CCC(=O)N[C@@H](CCC(=O)N[C@@H](CCCCNC(=O)C*)C(=O)O)C(=O)O)C(=O)O; X3 = O=C(O)CCCCCCCCCCCCCCCCC(=O)NCCOCCOCC(=O)N[C@@H](CCC(=O)N[C@@H](CCC(=O)N[C@@H](CCCCNC(=O)C*)C(=O)O)C(=O)O)C(=O)O; Aib = CC(C)(N)C(=O)O

Assays:
[1] = molecular target: Glucagon-like peptide 1 receptor (Homo sapiens, UniProt P43220); assay: Agonist activity at human GLP-1R expressed in CHO cells assessed as increase in cAMP production incubated for 30 mins by Eu-cAMP tracer based microplate reader analysis; assay type: functional, cell-based
Chain of Glucagon-like peptide 1 receptor (P43220 whole entry): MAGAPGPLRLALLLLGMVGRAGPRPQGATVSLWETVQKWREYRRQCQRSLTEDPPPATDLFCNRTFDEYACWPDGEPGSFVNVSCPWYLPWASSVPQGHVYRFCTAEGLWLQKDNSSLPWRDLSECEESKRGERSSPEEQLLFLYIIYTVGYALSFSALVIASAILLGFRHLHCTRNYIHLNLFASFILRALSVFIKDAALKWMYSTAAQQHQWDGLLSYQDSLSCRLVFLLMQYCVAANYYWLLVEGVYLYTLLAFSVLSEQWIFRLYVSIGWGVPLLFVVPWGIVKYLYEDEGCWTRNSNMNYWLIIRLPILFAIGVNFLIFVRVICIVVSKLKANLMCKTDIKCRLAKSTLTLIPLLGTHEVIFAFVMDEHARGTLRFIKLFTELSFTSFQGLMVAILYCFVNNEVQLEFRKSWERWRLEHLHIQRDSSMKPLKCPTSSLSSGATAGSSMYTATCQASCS

[2] = tested on: Mus musculus; assay: Glucose-lowering effect in male ICR mouse assessed as reduction in plasma glucose AUC (0 to 72 hrs) at 30 nmol/kg, sc pretreated for 71 hrs followed by […] administration and measured after 60 mins by oral glucose tolerance test; assay type: functional, organism-based
[3] = molecular target: T1, Gastric inhibitory polypeptide receptor (Homo sapiens, UniProt P48546); assay: Agonist activity at human GIPR expressed in CHO cells assessed as increase in cAMP production incubated for 30 mins by Eu-cAMP tracer based microplate reader analysis; assay type: functional, cell-based
T1 sequence (P48546 whole entry): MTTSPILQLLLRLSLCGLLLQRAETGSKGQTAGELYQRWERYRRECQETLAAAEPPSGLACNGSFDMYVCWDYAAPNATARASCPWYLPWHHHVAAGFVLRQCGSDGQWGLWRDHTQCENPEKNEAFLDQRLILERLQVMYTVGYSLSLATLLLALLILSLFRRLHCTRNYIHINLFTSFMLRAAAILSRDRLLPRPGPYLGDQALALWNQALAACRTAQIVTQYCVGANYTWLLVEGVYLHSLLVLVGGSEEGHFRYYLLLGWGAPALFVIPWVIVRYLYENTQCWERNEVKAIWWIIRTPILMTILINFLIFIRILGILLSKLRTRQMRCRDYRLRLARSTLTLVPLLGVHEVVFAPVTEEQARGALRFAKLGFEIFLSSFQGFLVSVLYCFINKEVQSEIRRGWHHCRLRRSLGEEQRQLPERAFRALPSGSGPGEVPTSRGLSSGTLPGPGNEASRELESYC

With `CC(C)C[C@H](NC(=O)[C@H](CC(C)C)NC(=O)[C@H](Cc1c[nH]c2ccccc12)NC(=O)[C@H](CCC(N)=O)NC(=O)[C@@H](NC(=O)[C@H](Cc1ccccc1)NC(=O)[C@H](CC(C)C)NC(=O)[C@H](CCCCN)NC(=O)[C@H](C)NC(=O)[C@H](C)NC(=O)[C@H](CCC(N)=O)NC(=O)[C@H](CCCCN)NC(=O)[C@H](CCC(=O)O)NC(=O)[C@H](CC(C)C)NC(=O)[C@H](CSCC(=O)NCCCC[C@H](NC(=O)CC[C@H](NC(=O)CC[C@H](NC(=O)COCCOCCNC(=O)CCCCCCCCCCCCCCCCCCC(=O)O)C(=O)O)C(=O)O)C(=O)O)NC(=O)[C@H](Cc1ccc(O)cc1)NC(=O)[C@H](CO)NC(=O)[C@H](Cc1ccc(O)cc1)NC(=O)[C@H](CC(=O)O)NC(=O)[C@H](CO)NC(=O)[C@@H](NC(=O)[C@H](Cc1ccccc1)NC(=O)[C@@H](NC(=O)CNC(=O)[C@H](CCC(=O)O)NC(=O)C(C)(C)NC(=O)[C@@H](N)Cc1ccc(O)cc1)[C@@H](C)O)[C@@H](C)O)C(C)C)C(=O)N[C@@H](C)C(=O)NCC(=O)NCC(=O)N1CCC[C@H]1C(=O)N[C@@H](CO)C(=O)N[C@@H](CO)C(=O)NCC(=O)N[C@@H](C)C(=O)N1CCC[C@H]1C(=O)N1CCC[C@H]1C(=O)N1CCC[C@H]1C(=O)N[C@@H](CO)C(N)=O` (H-Y[Aib]EGTFTSDYSYC(X4)LEKQAAKLFVQWLLAGGPSSGAPPPS-NH2) the EC50 [1] was 250 pM, the Activity [2] was “Active” and the EC50 [3] was 64 pM.
`CC(C)C[C@H](NC(=O)[C@H](CC(C)C)NC(=O)[C@H](Cc1c[nH]c2ccccc12)NC(=O)[C@H](CCC(N)=O)NC(=O)[C@@H](NC(=O)[C@H](Cc1ccccc1)NC(=O)[C@H](CC(C)C)NC(=O)[C@H](CCCCN)NC(=O)[C@H](C)NC(=O)[C@H](C)NC(=O)[C@H](CCC(N)=O)NC(=O)[C@H](CSCC(=O)NCCCC[C@H](NC(=O)[C@@H](N)CCCCNC(=O)[C@@H](N)CCCCNC(=O)CC[C@H](NC(=O)CCCCCCCCCCCCCCCCCCC(=O)O)C(=O)O)C(=O)O)NC(=O)[C@H](CCC(=O)O)NC(=O)[C@H](CC(C)C)NC(=O)[C@H](Cc1ccc(O)cc1)NC(=O)[C@H](Cc1ccc(O)cc1)NC(=O)[C@H](CO)NC(=O)[C@H](Cc1ccc(O)cc1)NC(=O)[C@H](CC(=O)O)NC(=O)[C@H](CO)NC(=O)[C@@H](NC(=O)[C@H](Cc1ccccc1)NC(=O)[C@@H](NC(=O)CNC(=O)[C@H](CCC(=O)O)NC(=O)C(C)(C)NC(=O)[C@@H](N)Cc1ccc(O)cc1)[C@@H](C)O)[C@@H](C)O)C(C)C)C(=O)N[C@@H](C)C(=O)NCC(=O)NCC(=O)N1CCC[C@H]1C(=O)N[C@@H](CO)C(=O)N[C@@H](CO)C(=O)NCC(=O)N[C@@H](C)C(=O)N1CCC[C@H]1C(=O)N1CCC[C@H]1C(=O)N1CCC[C@H]1C(=O)N[C@@H](CO)C(N)=O` (H-Y[Aib]EGTFTSDYSYYLEC(X1)QAAKLFVQWLLAGGPSSGAPPPS-NH2) was tested, and the EC50 [1] was 520 pM, the Activity [2] was “Active” and the EC50 [3] was 12 pM.
`CC(C)C[C@H](NC(=O)[C@H](CC(C)C)NC(=O)[C@H](Cc1c[nH]c2ccccc12)NC(=O)[C@H](CCC(N)=O)NC(=O)[C@@H](NC(=O)[C@H](Cc1ccccc1)NC(=O)[C@H](CC(C)C)NC(=O)[C@H](CSCC(=O)NCCCC[C@H](NC(=O)CC[C@H](NC(=O)CC[C@H](NC(=O)COCCOCCNC(=O)CCCCCCCCCCCCCCCCC(=O)O)C(=O)O)C(=O)O)C(=O)O)NC(=O)[C@H](C)NC(=O)[C@H](C)NC(=O)[C@H](CCC(N)=O)NC(=O)[C@H](CCCCN)NC(=O)[C@H](CCC(=O)O)NC(=O)[C@H](CC(C)C)NC(=O)[C@H](Cc1ccc(O)cc1)NC(=O)[C@H](Cc1ccc(O)cc1)NC(=O)[C@H](CO)NC(=O)[C@H](Cc1ccc(O)cc1)NC(=O)[C@H](CC(=O)O)NC(=O)[C@H](CO)NC(=O)[C@@H](NC(=O)[C@H](Cc1ccccc1)NC(=O)[C@@H](NC(=O)CNC(=O)[C@H](CCC(=O)O)NC(=O)C(C)(C)NC(=O)[C@@H](N)Cc1ccc(O)cc1)[C@@H](C)O)[C@@H](C)O)C(C)C)C(=O)N[C@@H](C)C(=O)NCC(=O)NCC(=O)N1CCC[C@H]1C(=O)N[C@@H](CO)C(=O)N[C@@H](CO)C(=O)NCC(=O)N[C@@H](C)C(=O)N1CCC[C@H]1C(=O)N1CCC[C@H]1C(=O)N1CCC[C@H]1C(=O)N[C@@H](CO)C(N)=O` (H-Y[Aib]EGTFTSDYSYYLEKQAAC(X3)LFVQWLLAGGPSSGAPPPS-NH2) was tested, and the EC50 [1] was 1020 pM, the Activity [2] was “Active” and the EC50 [3] was 670 pM.
In the case of `CC(C)C[C@H](NC(=O)[C@H](CC(C)C)NC(=O)[C@H](Cc1c[nH]c2ccccc12)NC(=O)[C@H](CCC(N)=O)NC(=O)[C@@H](NC(=O)[C@H](Cc1ccccc1)NC(=O)[C@H](CC(C)C)NC(=O)[C@H](CSCC(=O)NCCCC[C@H](NC(=O)CC[C@H](NC(=O)CC[C@H](NC(=O)COCCOCCNC(=O)CCCCCCCCCCCCCCCCCCC(=O)O)C(=O)O)C(=O)O)C(=O)O)NC(=O)[C@H](C)NC(=O)[C@H](C)NC(=O)[C@H](CCC(N)=O)NC(=O)[C@H](CCCCN)NC(=O)[C@H](CCC(=O)O)NC(=O)[C@H](CC(C)C)NC(=O)[C@H](Cc1ccc(O)cc1)NC(=O)[C@H](Cc1ccc(O)cc1)NC(=O)[C@H](CO)NC(=O)[C@H](Cc1ccc(O)cc1)NC(=O)[C@H](CC(=O)O)NC(=O)[C@H](CO)NC(=O)[C@@H](NC(=O)[C@H](Cc1ccccc1)NC(=O)[C@@H](NC(=O)CNC(=O)[C@H](CCC(=O)O)NC(=O)C(C)(C)NC(=O)[C@@H](N)Cc1ccc(O)cc1)[C@@H](C)O)[C@@H](C)O)C(C)C)C(=O)N[C@@H](C)C(=O)NCC(=O)NCC(=O)N1CCC[C@H]1C(=O)N[C@@H](CO)C(=O)N[C@@H](CO)C(=O)NCC(=O)N[C@@H](C)C(=O)N1CCC[C@H]1C(=O)N1CCC[C@H]1C(=O)N1CCC[C@H]1C(=O)N[C@@H](CO)C(N)=O` (H-Y[Aib]EGTFTSDYSYYLEKQAAC(X4)LFVQWLLAGGPSSGAPPPS-NH2), the EC50 [1] is reported as 1250 pM, the Activity [2] is reported as “Active” and the EC50 [3] is reported as 730 pM.
For `CC(C)C[C@H](NC(=O)[C@H](CC(C)C)NC(=O)[C@H](Cc1c[nH]c2ccccc12)NC(=O)[C@H](CSCC(=O)NCCCC[C@H](NC(=O)CC[C@H](NC(=O)CC[C@H](NC(=O)COCCOCCNC(=O)CCCCCCCCCCCCCCCCCCC(=O)O)C(=O)O)C(=O)O)C(=O)O)NC(=O)[C@@H](NC(=O)[C@H](Cc1ccccc1)NC(=O)[C@H](CC(C)C)NC(=O)[C@H](CCCCN)NC(=O)[C@H](C)NC(=O)[C@H](C)NC(=O)[C@H](CCC(N)=O)NC(=O)[C@H](CCCCN)NC(=O)[C@H](CCC(=O)O)NC(=O)[C@H](CC(C)C)NC(=O)[C@H](Cc1ccc(O)cc1)NC(=O)[C@H](Cc1ccc(O)cc1)NC(=O)[C@H](CO)NC(=O)[C@H](Cc1ccc(O)cc1)NC(=O)[C@H](CC(=O)O)NC(=O)[C@H](CO)NC(=O)[C@@H](NC(=O)[C@H](Cc1ccccc1)NC(=O)[C@@H](NC(=O)CNC(=O)[C@H](CCC(=O)O)NC(=O)C(C)(C)NC(=O)[C@@H](N)Cc1ccc(O)cc1)[C@@H](C)O)[C@@H](C)O)C(C)C)C(=O)N[C@@H](C)C(=O)NCC(=O)NCC(=O)N1CCC[C@H]1C(=O)N[C@@H](CO)C(=O)N[C@@H](CO)C(=O)NCC(=O)N[C@@H](C)C(=O)N1CCC[C@H]1C(=O)N1CCC[C@H]1C(=O)N1CCC[C@H]1C(=O)N[C@@H](CO)C(N)=O` (H-Y[Aib]EGTFTSDYSYYLEKQAAKLFVC(X4)WLLAGGPSSGAPPPS-NH2), the EC50 [1] was 440 pM, the Activity [2] was “Active” and the EC50 [3] was 1120 pM.
`CC(C)C[C@H](NC(=O)[C@H](CC(C)C)NC(=O)[C@H](Cc1c[nH]c2ccccc12)NC(=O)[C@H](CS)NC(=O)[C@@H](NC(=O)[C@H](Cc1ccccc1)NC(=O)[C@H](CC(C)C)NC(=O)[C@H](CCCCN)NC(=O)[C@H](C)NC(=O)[C@H](C)NC(=O)[C@H](CCC(N)=O)NC(=O)[C@H](CCCCN)NC(=O)[C@H](CCC(=O)O)NC(=O)[C@H](CC(C)C)NC(=O)[C@H](Cc1ccc(O)cc1)NC(=O)[C@H](Cc1ccc(O)cc1)NC(=O)[C@H](CO)NC(=O)[C@H](Cc1ccc(O)cc1)NC(=O)[C@H](CC(=O)O)NC(=O)[C@H](CO)NC(=O)[C@@H](NC(=O)[C@H](Cc1ccccc1)NC(=O)[C@@H](NC(=O)CNC(=O)[C@H](CCC(=O)O)NC(=O)C(C)(C)NC(=O)[C@@H](N)Cc1ccc(O)cc1)[C@@H](C)O)[C@@H](C)O)C(C)C)C(=O)N[C@@H](C)C(=O)NCC(=O)NCC(=O)N1CCC[C@H]1C(=O)N[C@@H](CO)C(=O)N[C@@H](CO)C(=O)NCC(=O)N[C@@H](C)C(=O)N1CCC[C@H]1C(=O)N1CCC[C@H]1C(=O)N1CCC[C@H]1C(=O)N[C@@H](CO)C(N)=O` (H-Y[Aib]EGTFTSDYSYYLEKQAAKLFVCWLLAGGPSSGAPPPS-NH2) gave an EC50 [1] of 570 pM and an EC50 [3] of 2570 pM.
Work on `CC(C)C[C@H](NC(=O)[C@H](CCCCN)NC(=O)[C@H](C)NC(=O)[C@H](C)NC(=O)[C@H](CCC(N)=O)NC(=O)[C@H](CCCCN)NC(=O)[C@H](CCC(=O)O)NC(=O)[C@H](CC(C)C)NC(=O)[C@H](Cc1ccc(O)cc1)NC(=O)[C@H](Cc1ccc(O)cc1)NC(=O)[C@H](CO)NC(=O)[C@H](Cc1ccc(O)cc1)NC(=O)[C@H](CC(=O)O)NC(=O)[C@H](CO)NC(=O)[C@@H](NC(=O)[C@H](Cc1ccccc1)NC(=O)[C@@H](NC(=O)CNC(=O)[C@H](CCC(=O)O)NC(=O)C(C)(C)NC(=O)[C@@H](N)Cc1ccc(O)cc1)[C@@H](C)O)[C@@H](C)O)C(=O)N[C@@H](Cc1ccccc1)C(=O)N[C@H](C(=O)N[C@@H](CCC(N)=O)C(=O)N[C@@H](Cc1c[nH]c2ccccc12)C(=O)N[C@@H](CC(C)C)C(=O)N[C@@H](CS)C(=O)N[C@@H](C)C(=O)NCC(=O)NCC(=O)N1CCC[C@H]1C(=O)N[C@@H](CO)C(=O)N[C@@H](CO)C(=O)NCC(=O)N[C@@H](C)C(=O)N1CCC[C@H]1C(=O)N1CCC[C@H]1C(=O)N1CCC[C@H]1C(=O)N[C@@H](CO)C(N)=O)C(C)C` (H-Y[Aib]EGTFTSDYSYYLEKQAAKLFVQWLCAGGPSSGAPPPS-NH2) yielded an EC50 [1] of 2830 pM and an EC50 [3] of 2330 pM.
